Results on two compounds are retold here after patent US8791258B2, “Pro-fluorescent probes” (The Regents of the University of California, priority 2008, dated 2014).

Some results are limits rather than exact numbers.

Data set [1] deals with embryonic rat hippocampal neurons (E18). In words: Fluorescence imaging of H2O2 in cultured hippocampal neurons. In kind it is cell-based. How it is done:
Hippocampal primary cultures were prepared from embryonic day 18 (E18) rat embryos according to a previously reported protocol. Briefly, hippocampi were dissociated by treatment with trypsin for 20 min at 37° C. followed by washing. The neuronal cells were plated on glass coverslips (Carolina Biological, Burlington, N.C.) coated with poly-L-lysine ([…], Sigma) and cultured in neurobasal medium supplemented with 2 mM Glutamax and 2% B-27 (Invitrogen). After 10 days in vitro, the cultures were washed with PBS, incubated with the probe in PBS, and imaged.
Finally, the successful use of the Peroxysensor probes for monitoring changes in intracellular H2O2 concentrations in mammalian cell lines using either confocal or two-photon microscopy led us to evaluate their utility in primary culture systems. […] Control neurons without PF1 and/or H2O2 treatment show no detectable fluorescence enhancements. These experiments confirm that PF1 can be used in living neurons to detect oxidative stress events.

The test system of the next data set is HEK cells. In words: Confocal and two-photon fluorescence imaging of H2O2 in live HEK cells. To be noted: for intracellular background fluorescence of probe-loaded cells before H2O2: 5-10 μM probe, 2-10 min at 25° C.; for intracellular fluorescence after addition of H2O2: probe-loaded cells, 10-100 μM H2O2. On the procedure:
(a) Fluorescence image of HEK cells incubated with 5 μM PF1 for 5 min at 25° C. (b) Fluorescence image of PF1-stained HEK cells treated with 100 μM H2O2 for 11 min at 25° C. Excitation was provided at 488 nm, and emission was collected in a window from 505 to 580 nm. Scale bar=27 μm.
(a) Fluorescence image of HEK cells incubated with 10 μM PR1 for 10 min at 25° C. (b) Fluorescence image of PR1-stained HEK cells treated with 100 μM H2O2 for 30 min at 25° C. Excitation was provided at 543 nm, and emission was collected in a window from 548 to 644 nm. Scale bar=18 μm.
(a) Fluorescence image of HEK cells incubated with 10 μM PX1 for 2-3 min at 25° C. (b) Fluorescence image of PX1-stained HEK cells treated with 100 μM H2O2 for 30 min at 25° C. Two-photon excitation was provided at 704 nm, and emission was collected in a window from 420 to 500 nm. Scale bar=18 μm.
HEK 293T cells were cultured in Dulbecco's Modified Eagle Medium (DMEM, Invitrogen, Carlsbad, Calif.) supplemented with 10% Fetal Bovine Serum (FBS, Invitrogen), glutamine (2 mM), and penicillin/streptomycin (50 μg/ml, Invitrogen). One day before imaging, cells were passed and plated on 18-mm glass coverslips coated with poly-L-lysine (50 μg/ml, Sigma, St. Louis, Mo.). Immediately before the experiments, cells were washed with PBS buffer, incubated with the probe in PBS, and imaged.
Confocal fluorescence imaging was performed with a Zeiss LSM510 META laser scanning microscope containing an Axioplan 2 MOT upright microscope and a 40× water-immersion objective lens. Excitation of PF1-loaded cells at 488 nm was carried out with an argon ion laser, and emission was Collected in a window from 505 nm to 580 nm using a META detection system. Excitation of PR1-loaded cells at 543 nm was carried out with a HeNe laser, and emission was collected in a window from 548 nm to 644 nm using a META detector. PF1 or PR1 were incubated with live cell samples for 5 to 10 min. Addition of H2O2 (10 to 100 μM) to cell samples was performed directly on the microscope stage by bath application to the media.
Two-photon fluorescence imaging of PX1 was carried out using an inverted Zeiss LSM510 Axiovert 200M microscope with a NeoFLUAR 40×/1.3 NA oil-immersion objective lens. Samples were excited by 704-nm pulses from a mode-locked Ti:Sapphire laser (Tsunami, SpectraPhysics, 120-150 fs pulse width, 80 MHz repetition rate). The emission light was filtered with a 80-nm wide bandpass filter centered at 460 nm (460BP40, Chroma) and detected with the non-descanned detector (NDD) of the LSM510.

The nature of data set [2]: Fluorescence response to various ROS (H2O2 selectivity). To be noted: 100 μM ROS, 20 mM HEPES, pH 7, 25° C. How it is done: FIG. 7 is the fluorescence response of 5 μM PF1 to various ROS (10 mM O2^−, 100 μM for all other ROS). .OH and .Ot-Bu were generated by reaction of Fe^2+ with H2O2 or tert-butyl hydroperoxide (TBHP), respectively. NO was delivered using S-nitrosocysteine (SNOC). Spectra were acquired in 20 mM HEPES, pH 7, and all data were obtained after incubation with the appropriate ROS at 25° C. for 1 h. Collected emission was integrated between 460 and 700 nm (λexc=450 nm).
FIG. 8 is the fluorescence response of 5 μM PR1 to various ROS (10 mM O2^−, 100 μM for all other ROS). .OH and .O^tBu were generated by reaction of Fe^2+ with H2O2 or tert-butyl hydroperoxide (TBHP), respectively. NO was delivered using S-nitrosocysteine (SNOC). Spectra were acquired in 20 mM HEPES, pH 7, and all data were obtained after incubation with the appropriate ROS at 25° C. for 30 min. Collected emission was integrated between 570 and 800 nm (λexc=560 nm).
FIG. 9 is the fluorescence response of 10 μM PX1 to various ROS (10 mM O2^−, 100 μM for all other ROS). .OH and .Ot-Bu were generated by reaction of Fe^2+ with H2O2 or tert-butyl hydroperoxide (TBHP), respectively. NO was delivered using S-nitrosocysteine (SNOC). Spectra were acquired in 20 mM HEPES, pH 7, and all data were obtained after incubation with the appropriate ROS at 25° C. for 1 h. Collected emission was integrated between 370 and 600 nm (λexc=350 nm).
(§1) Millipore water was used to prepare all aqueous solutions. All spectroscopic measurements were performed in 20 mM HEPES buffer, pH 7. Absorption spectra were recorded using a Varian Cary 50 spectrophotometer (Walnut Creek, Calif.). Fluorescence spectra were recorded using a Photon Technology International Quanta Master 4 L-format scanning spectrofluorometer (Lawrenceville, N.J.) equipped with an LPS-220B 75-W xenon lamp and power supply, A-1010B lamp housing with integrated igniter, switchable 814 photon-counting/analog photomultiplier detection unit, and MD5020 motor driver. Samples for absorption and fluorescence measurements were contained in 1-cm×1-cm quartz cuvettes (1.4- or 3.5-mL volume, Starna, Atascadero, Calif.).
FIG. 7, FIG. 8 and FIG. 9 compare the relative reactivities of boronate-based PF1, PR1, and PX1, respectively, toward various ROS.

Data set [3] in a line: Absorption and emission properties, fluorescence quantum yield. In kind it is physicochemical. The note with it: absorption maximum 350 nm; 20 mM HEPES, pH 7. On the procedure:
as §1
as §1, with “recorded on” for “recorded using”, “Creek, Calif.) and fluorescence” for “Creek, Calif.). Fluorescence”, “and emission” for “and fluorescence”, “cuvettes (1.5-mL” for “cuvettes (1.4- or 3.5-mL”, “Calif.). Fluorescence quantum yields were determined by reference to fluorescein in 0.1M NaOH (Φ=0.95).” for “Calif.).”

A short description of data set [4]: Fluorescence response to H2O2 in 20 mM HEPES, pH 7. On the procedure: as §1
The Peroxysensor reagents were evaluated under simulated physiological conditions (20 mM HEPES buffer, pH 7). […] FIG. 4, FIG. 5 and FIG. 6 show the fluorescence responses of PF1, PR1, and PX1, respectively, to H2O2.

As to `CC1(C)OB(c2ccc3c(c2)Oc2cc(B4OC(C)(C)C(C)(C)O4)ccc2C32OC(=O)c3ccccc32)OC1(C)C` [PF1, 3′,6″-Bis(pinacolatoboron)fluoran], the “background fluorescence of probe-loaded neurons” value in data set [1] (10 μM probe, 5 min at 25° C.) is “negligible background fluorescence”. For the same compound, in data set [1] (300 μM H2O2 for 30 min at 25° C.), the “intracellular fluorescence under simulated oxidative stress” value is “notable increases in intracellular fluorescence”. In the data set with HEK cells, the “cell viability during imaging” value was “cells are viable throughout the imaging experiments”, the “membrane permeability / cell entry” value is on record as “can passively enter live cells”, the “intracellular background fluorescence of probe-loaded cells before H2O2” value is “negligible intracellular background fluorescence” and the “intracellular fluorescence after addition of H2O2” value is recorded as “prompt increases in intracellular green fluorescence”. The “higher response for H2O2 over .OH” value in data set [2] (.OH from Fe2+ with H2O2) is on record as more than 3 fold. Also, the “higher response for H2O2 over .OtBu” value in data set [2] (.OtBu from Fe2+ with TBHP) is given as more than 15 fold.

With `CC1(C)OB(c2ccc3c(=O)c4ccc(B5OC(C)(C)C(C)(C)O5)cc4oc3c2)OC1(C)C` [PX1, 3,6-Bis(pinacolatoboron)xanthone], the “extinction coefficient ε at 350 nm” value in data set [3] was 4700 M⁻¹ cm⁻¹. The “increase in integrated fluorescence intensity / integrated emission on reaction with H2O2 (dynamic range)” value in data set [4] turned out to be 52 fold. Besides, in the data set with HEK cells, the “intracellular background fluorescence of probe-loaded cells before H2O2” value is reported as “minimal intracellular background fluorescence” and the “intracellular fluorescence after addition of H2O2” value is given as “Prompt increases in intracellular blue fluorescence”. Besides, the “higher response for H2O2 over NO” value in data set [2] (NO delivered using SNOC) is listed as “ca. 6 fold”. For the same compound, in data set [2], the “higher response for H2O2 over tert-butyl hydroperoxide (TBHP)” value is more than 100 fold.
